In US11944665B2, “Methods and compositions for modulating lymphatic vessels in the central nervous system” (University of Virginia Patent Foundation, priority 2016, dated 2024):

What was measured:
[1] = test system: 5xFAD (APPSweFILon,PSEN1*M146L*L286V) transgenic mice; test: Visudyne ablation in 5xFAD mice, amyloid pathology (Example 9); format: in vivo; conditions: ablation every 3 weeks for 1.5 months
Excerpt: Meningeal lymphatic ablation in 1.5 months-old 5xFAD (APPSweFILon,PSEN1*M146L*L286V) transgenic mice was achieved by ICM injection of visudyne, or vehicle as a control, followed by a step of transcranial photoconversion. This procedure was repeated every 3 weeks, for a total of 1.5 months. Meninges of 5xFAD mice from the different groups were stained with DAPI and for LYVE-1 and Aβ. Aβ aggregates were detected in the meninges of 5xFAD mice that undergone lymphatic ablation by visudyne, but not in the meninges of vehicle-injected mice. Aβ aggregates formed specially around the sinuses and in the cerebellar meninges. Hippocampus was stained for DAPI and Amyloid-beta in vehicle or visudyne-injected 5xFAD mice (scale bar, 1 mm, inset, 200 μm). […] Results are presented as mean±s.e.m.; n=5 per group: *P<0.05, one-tailed Mann-Whitney test.

meningeal lymphatics = test: Photoablation of meningeal lymphatics, Visudyne 5 or 20 μg, 690 nm laser (FIG. 14); format: in vivo, mice; conditions: 5 or 20 μg i.c.v., 24 hrs post-ablation
Experimental: Meninges were stained for Lyve-1, Prox1 and CD31 24 hrs post-ablation. […] In FIG. 14C, the top panel refers to a control, the middle mane refers to 20,000 ng of Visudyne, and the bottom panel refers to 5,000 ng of Visudyne.

meningeal lymphatic = test: Lymphatic drainage of fluorescent microbeads into deep cervical lymph nodes (FIG. 15); format: in vivo, mice; conditions: pharmacological ablation, 24 h after ablation, vs PBS
Experimental: FIGS. 15A-E are a series of diagrams, microscope images, and graphs showing modulation of the meningeal lymphatic affects drainage into the cervical lymph nodes. […] Fluorescent microbeads (0.5 μm in diameter-5 μl) were injected in the lateral ventricle of mice at a rate of 0.5 μl/min. 30 min later, the deep cervical lymph nodes were harvested, sliced and immunostained for the presence of fluorescent beads. FIG. 15B is a pair of representative sections of deep cervical lymph nodes from sham operated (left) and ligated (right) mice immunostained for lymphatic vasculature (Lyve-1), fluorescent microbeads and Lyve-1. Note the accumulation of microbeads in the subcapsular space of the lymph nodes in the sham operated mice (left). […] N=3-4 mice per group, Student-t-test. d. Quantification of the coverage of dCLN section by fluorescent beads in PBS and Visudyne injected mice (24 h after ablation). N=3-5 mice per group, *p<0.05, Student-t-test. e. Quantification of the coverage of dCLN section by fluorescent beads in PBS and VEGF-c injected mice (5 days after VEGF-c injection). N=4 mice per group.

nasal lymphatics = test: Nasal lymphatics after intranasal Visudyne (Example 25); format: in vivo, mice; conditions: 24 h after intranasal (i.n.) injection
Experimental: Adult mice were injected i.c.m. with Visudyne. Fifteen to thirty minutes injection, Visudyne was converted using a non-thermal 689 nm laser applied on the intact skull. In the targeted group, the laser was aimed at 5 different spots localized above the meningeal lymphatics. In the non-targeted group, the laser was aimed further away to no convert the Visudyne localized within the meningeal lymphatics.
The density of exogenously injected T cells per mm2 of dCLN in targeted and non-targeted Visudyne treated mice was quantified (FIG. 49A) (expressed as percentage of the control condition)(mean±s.e.m, n=4-6 mice/group, **p=0.0072 Student t test). Images of the nasal lymphatics (Prox1GFP—green, Lyve1—red) were obtained 24 h after laser or intranasal (i.n.) injection of Visudyne. The inset illustrate the lymphatic bundle at the base of the skull that gets ablated after Visudyne treatment. Scale bar=50 μm. The density of T cells per mm2 of dCLN was quantified (FIG. 49B) or percentage of beads coverage was quantified (FIG. 49C) in the dLCN of laser, Visudyne (i.n.)+laser and Visudyne (i.c.m.)+laser treated mice (expressed as percentage of the control condition). […] T cells were quantified in the meninges of laser and Visudyne (i.c.m.)+laser treated mice at 7 days post ablation. T cells were quantified in the meninges of laser and Visudyne (i.c.m.)+laser treated mice (FIG. 49D). […]

For verteporfin [Visudyne], the “Aβ aggregates in the meninges” value ([1]; not in vehicle-injected mice) was “detected”, the “amyloid plaque coverage in the hippocampus” value ([1]; vs vehicle) was “statistically significant increase” and the “amyloid plaque number in the hippocampus” value ([1]; vs vehicle) was “statistically significant increase”. The “amyloid plaque size in the hippocampus” value ([1]; vs vehicle) was “trend for increased plaque size”, the “effect on the blood vessels (CD31)” value (meningeal lymphatics) was “No effect on the blood vessels” and the “meningeal lymphatics in superior sagittal and transverse sinuses (Lyve-1, Prox1)” value (meningeal lymphatics) was “Disruption of lymphatics”. For the same substance, the “lymphatic drainage into the cervical lymph nodes after ablation” value (meningeal lymphatic) was “alteration of lymphatic drainage” and the “nasal lymphatic bundle at the base of the skull” value (nasal lymphatics) was “gets ablated”.
